Read-outs that look alike come from different tables or passages of the source.
Experiments:
EGFR Del19/T790M/C797S = EGFR Del19/T790M/C797S (Homo sapiens, UniProt P00533, C797S/DEL746-750/T790M); assay: Biochemical EGFR kinase inhibition assay (Lance Ultra TR-FRET), triple mutant del19/T790M/C797S
Method in brief: (§1)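 Kinase activity is measured by TR-FRET phosphopeptide detection. Compounds span 0.003 μM to 10 μM; the 1 h reaction at room temperature is quenched with EDTA, then labelled antibody (2 nM) is incubated 60 min before reading.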

EGFR L858R/T790M/C797S = EGFR L858R/T790M/C797S (Homo sapiens, UniProt P00533, C797S/L858R/T790M); assay: Biochemical EGFR kinase inhibition assay (Lance Ultra TR-FRET), triple mutant L858R/T790M/C797S
Method in brief: as §1

EGFR Del19/C797S = EGFR Del19/C797S (Homo sapiens, UniProt P00533, C797S/DEL746-750); assay: Biochemical EGFR kinase inhibition assay (Lance Ultra TR-FRET), double mutant del19/C797S
Method in brief: as §1

EGFR L858R/C797S = EGFR L858R/C797S (Homo sapiens, UniProt P00533, C797S/L858R); assay: Biochemical EGFR kinase inhibition assay (Lance Ultra TR-FRET), double mutant L858R/C797S
Method in brief: as §1

EGFR wildtype (WT) = EGFR wildtype (WT) (Homo sapiens, UniProt P00533); assay: Biochemical EGFR kinase inhibition assay (Lance Ultra TR-FRET), wildtype
Method in brief: as §1

[1] = Km ATP, read-out: IC50 Del19/T790M/C797S (nM), Km ATP
[2] = Km ATP, read-out: IC50 L858R/T790M/C797S (nM), Km ATP
[3] = Km ATP, read-out: IC50 Del19/C797S (nM), Km ATP
[4] = Km ATP, read-out: IC50 L858R/C797S (nM), Km ATP
[5] = Km ATP, read-out: IC50 WT (nM), Km ATP

| IC50 (EGFR Del19/T790M/C797S; IC50 Del19/T790M/C797S (nM), 100 μM ATP) | IC50 (EGFR Del19/T790M/C797S; [1]) | IC50 (EGFR L858R/T790M/C797S; IC50 L858R/T790M/C797S (nM), 100 μM ATP) | IC50 (EGFR L858R/T790M/C797S; [2]) | IC50 (EGFR Del19/C797S; IC50 Del19/C797S (nM), 100 μM ATP) | IC50 (EGFR Del19/C797S; [3]) | IC50 (EGFR L858R/C797S; IC50 L858R/C797S (nM), 100 μM ATP) | IC50 (EGFR L858R/C797S; [4]) | IC50 (EGFR wildtype (WT); IC50 WT (nM), 100 μM ATP) | IC50 (EGFR wildtype (WT); [5]) | Compound | IC50 (EGFR Del19/T790M/C797S; ATP at Km, read-out: IC50 Del19/T790M/C797S (nM), Km ATP) | IC50 (EGFR Del19/T790M/C797S; read-out: IC50 Del19/T790M/C797S (nM), 100 μM ATP) | IC50 (EGFR L858R/T790M/C797S; read-out: IC50 L858R/T790M/C797S (nM), 100 μM ATP) | IC50 (EGFR Del19/C797S; ATP at Km, read-out: IC50 Del19/C797S (nM), Km ATP) | IC50 (EGFR Del19/C797S; read-out: IC50 Del19/C797S (nM), 100 μM ATP) | IC50 (EGFR L858R/C797S; ATP at Km, read-out: IC50 L858R/C797S (nM), Km ATP) | IC50 (EGFR L858R/C797S; read-out: IC50 L858R/C797S (nM), 100 μM ATP) | IC50 (EGFR wildtype (WT); ATP at Km, read-out: IC50 WT (nM), Km ATP) | IC50 (EGFR wildtype (WT); read-out: IC50 WT (nM), 100 μM ATP) |
| --- | --- | --- | --- | --- | --- | --- | --- | --- | --- | --- | --- | --- | --- | --- | --- | --- | --- | --- | --- |
| 1.7 nM | 1 nM | 6.1 nM | 1.2 nM | 44.7 nM | 27.7 nM | 503 nM | 5.8 nM | > 10000 nM | 300 nM | C[C@]1(O)CCCN(c2cc(Nc3ccnc(-c4cnn(S(=O)(=O)C5CC5)c4)n3)ncc2C#Cc2cnn(C(F)(F)F)c2)C1 [Example 448, (S)-1-(2-((2-(1-(Cyclopropylsulfonyl)-1H-pyrazol-4-yl)pyrimidin-4-yl)amino)-5-((1-(trifluoromethyl)-1H-pyrazol-4-yl)ethynyl)pyridin-4-yl)-3-methylpiperidin-3-ol] | – | – | – | – | – | – | – | – | – |
| – | 165 nM | – | 51.7 nM | – | 268 nM | – | 69.3 nM | – | 564 nM | CC1(CO)CCN(c2cc(Nc3ccnc(N4CCN(S(=O)(=O)C5CC5)CC4)n3)ncc2C#Cc2cnn(C(F)(F)F)c2)CC1 [Example 449, (1-(2-((2-(4-(Cyclopropylsulfonyl)piperazin-1-yl)pyrimidin-4-yl)amino)-5-((1-(trifluoromethyl)-1H-pyrazol-4-yl)ethynyl)pyridin-4-yl)-4-methylpiperidin-4-yl)methanol] | – | – | – | – | – | – | – | – | – |
| – | – | – | – | – | – | – | – | – | – | (1-(2-((2-(1-(Cyclopropylsulfonyl)-1H-pyrazol-4-yl)pyrimidin-4-yl)amino)-5-((5-((3,3-difluoroazetidin-1-yl)methyl)-1-(2,2-difluoroethyl)-1H-pyrrol-3-yl)ethynyl)pyridin-4-yl)-4-methylpiperidin-4-yl)methanol [Example 248] | 8.3 nM | 13.8 nM | 11.4 nM | 9.9 nM | 8.6 nM | 16.6 nM | 39.4 nM | 30.1 nM | 6600 nM |
